Reference: ChEMBL document CHEMBL1772953, “Lupinacidin C, an inhibitor of tumor cell invasion from Micromonospora lupini” (J Nat Prod, 2011)

How the values were obtained:
[1] = Antiinvasive activity against mouse 26-L5 cells after 6 to 8 hrs using hematoxylin/eosin dye by Matrigel assay; format: functional, cell-based
[2] = Cytotoxicity against mouse 26-L5 cells at <0.3 ug/ml after 24 hrs; format: cell-based

Row | SMILES | IC50 [1] [nM] | Activity [2]
1 | Cc1c(O)c(CCC(C)C)c2c(c1O)C(=O)c1cccc(O)c1C2=O [LUPINACIDIN A] | 210 | 
2 | CCCCc1c(O)c(C)c(O)c2c1C(=O)c1c(O)cccc1C2=O [LUPINACIDIN B] | 920 | 
3 | CC[C@H](C)CCc1c(O)c(C)c(O)c2c1C(=O)c1c(O)cccc1C2=O [LUPINACIDIN C] | 540 | Non-toxic
